“Also recorded” adds a separate entry of the source. Like-named read-outs stand apart in the source and are kept apart here.
Assays:
[1] = chemical stability / shelf life; assay type: physicochemical
Excerpt: Hydrazide of diphenylphosphenylacetic acid is a bitter-tasting odorless white powder.

solubility = assay type: physicochemical
Excerpt: Hydrazide of diphenylphosphinylacetic acid is a bitter-tasting odorless white crystalline powder. It is soluble in water (1:100), alcohol and chloroform, but insoluble in benzene and ether.

[2] = sedative effect / depression in animals; assay type: in vivo, mice and rats
[3] = system: orientating reaction in mice; assay: orientating reaction in mice; assay type: in vivo; details: intra-abdominal, 1/8 DMT, one hour before
[4] = system: hexenal, barbamil, urethane and chloral hydrate effect; assay: interaction with narcotics and soporifics (hexenal, barbamil, urethane, chloral hydrate); assay type: in vivo
Excerpt: (§1) A dose as low as 1/5 DMT potentiates barbamil.

monoaminooxidaze = monoaminooxidaze suppression, inferred from hexenal sleep; assay type: in vivo; details: concluded from equal hexenal sleep at 2 and 22 hours
Excerpt: as §1

body temperature of mice = assay type: in vivo; details: for decrease of body temperature (hypothermal effect): 200 mg/kg (DMT)
[5] = system: hypothermal effect of aminazine (chlorpromazine); assay: hypothermal effect of aminazine (chlorpromazine); details: in vivo
[6] = system: separated intestines; blood pressure and respiration of rabbits; assay: peripheral adrenolytic effect: separated intestines, blood pressure and respiration of rabbits
[7] = system: action of serotonin on a separated rat's intestine; assay: separated intestine with serotonin
[8] = system: serotonin content in brain tissue; assay: serotonin content in brain tissue of mice; assay type: in vivo
effects of nibuphin = assay: synergism with nibuphin; details: in vivo
[9] = system: convulsant effects of corasole and caffeine; assay: sensitivity of mice to the convulsant effects of corasole and caffeine; assay type: in vivo
cumulative effect = details: in vivo
[10] = system: apomorphine toxicity and stereotypy; assay: apomorphine toxicity and stereotypy; assay type: in vivo, mice
[11] = system: nicotine-induced convulsions; assay: nicotine-induced convulsions in mice; assay type: in vivo
arecoline tremor = assay: M-cholinolytic effect: arecoline tremor in mice; assay type: in vivo
[12] = system: convulsions caused by corasole, strychnine, and electroconvulsion therapy; assay: convulsions caused by corasole, strychnine and electroconvulsion therapy; assay type: in vivo, animals
Excerpt: (§2) As regards the effects of the proposed preparation on convulsions induced in animals in the course of an experiment, the mechanism of action appears to be more complicated.

[13] = system: epileptic seizures caused by microinjections of penicillin; assay: epileptic seizures caused by microinjections of penicillin into the hippocamp; assay type: in vivo; details: rabbits, 20 to 100 mg/kg
Excerpt: as §2

[14] = system: sympathoadrenal and hypothalamohypophysioadrenal systems; assay: clinical studies of vegetovascular dystonia; assay type: in vivo, patients; details: 32 cases
local irritant effect = details: in vivo
[15] = acute toxicity / tolerance dose; details: in vivo
[16] = behavior of rabbits after intramuscular administration; assay type: in vivo; details: 50 mg/kg
[17] = prolonged treatment, anatomical and histological examination, mice; assay type: in vivo; details: intraperitoneal, 35 mg/kg (1/9 LD50)
[18] = prolonged treatment, anatomical and histological examination, rabbits; assay type: in vivo; details: intramuscular, 50 mg/kg
[19] = clinical: hypothalamic syndrome with sympathoadrenal crises; assay type: in vivo, patients; details: of 20 cases
Excerpt: In 12 cases the number and intensity of fits were reduced and general improvement was observed. Earlier, all the patients had been repeatedly admitted to neurological hospitals where they were subjected to different forms of treatment, including drug therapy with the use of tranquilizers of the benzodiazepin derivatives. The effect of such treatment was quite moderate and unstable and was only manifest in a reduced number of fits and a slight improvement of the general state of the patients.

[20] = clinical: neurasthenia with vegetovascular dystonia; assay type: in vivo, patients
[21] = clinical: acute alcoholic abstinence; assay type: in vivo, patients; details: of 30 alcoholics; first two days; placebo 10 of 30
Excerpt: On the whole, the proposed preparation reduced the period of abstinence 2- to 3-fold.

[22] = clinical: temporal lobe epilepsy; assay type: in vivo, patients
Excerpt: Good results were also obtained in treating 18 cases of temporal lobe epilepsy with predominant psychosensory, psychomotor, vegetative and emotional fits. For a number of years, all the patients had been given anticonvulsants and tranquilizers which were derivatives of benzodiazepin. In most of these cases conventional treatment had been ineffective. The proposed preparation brought about a dramatic change: in 14 cases the attacks either ceased completely or their frequency was reduced by more than half.

[23] = clinical safety on prolonged use; assay type: in vivo, patients
Excerpt: The proposed preparation can be used for treating both young and old patients, as well as those having concomitant diseases of internal organs.

cholinesterase = assay: anticholinesterase properties
phenamine stereotypy = phenamine stereotypy in rats
lethal dose of cocaine = lethal dose of cocaine in mice
[24] = clinical investigation in neurotic and psychic disorders
[25] = cited from earlier work; for vegetotropic and antiepileptic effect: among tranquilizers; for relaxing effect and sluggishness: taken over prolonged periods of time; for effect of other treatments: aforesaid diseases
[26] = system: convulsant effects of corasole and caffeine; details: mice; comparison drug; cited from earlier work

For `NNC(=O)CP(=O)(c1ccccc1)c1ccccc1` [Hydrazide of diphenylphosphinylacetic acid], the shelf life [1] was “longer than two years”, the chemical stability ([1]; powder and solution) was “chemically stable both in the form of powder and solution” and the solubility in alcohol (solubility; alcohol) was “soluble”. The solubility in benzene (solubility; benzene) was “insoluble”, the solubility in chloroform (solubility; chloroform) was “soluble” and the solubility in ether (solubility; ether) was “insoluble”. For the same compound, the sedative effect ([2]; animals) was “pronounced sedative effect”, the “lowest dose causing depression” value ([2]; mice and rats) was 1/3 and the “depression (without "on-side" position)” value ([2]; mice and rats, tolerance doses, beginning with 1/3 DMT) was “causes depression in mice and rats”. For the same compound, the “effect on orientating reaction” value [3] was “affects the orientating reaction in mice”, the “lowest dose potentiating barbamil” value ([4]; barbamil) was 1/5 and the “duration of hexenal sleep” value ([4]; hexenal given 2 and 22 hours after the preparation) was “induces sleep of equal duration”. For the same compound, the “potentiation of narcotics and soporifics” value ([4]; in vivo) was “potentiates hexenal, barbamil, urethane and chloral hydrate; also recorded: exhibits the properties of a true Brodie potentiator”, the “suppression of monoaminooxidaze activity” value (monoaminooxidaze) was “does not suppress the monoaminooxidaze activity” and the “effect on body temperature” value (body temperature of mice; 30 mg/kg (1/7 DMT)) was “no effect”. The “effect on body temperature” value (body temperature of mice; 60 mg/kg (printed 166 DMT)) was “no effect”, the “decrease of body temperature (hypothermal effect)” value (body temperature of mice; 1.5 hours) was 4.3 °C and the “decrease of body temperature (hypothermal effect)” value (body temperature of mice; 3 hours) was 3.4 °C. The “effect on hypothermal effect of aminazine (chlorpromazine)” value [5] was “intensifies the hypothermal effect”, the peripheral adrenolytic effect [6] was “no peripheral adrenolytic effect” and the “antagonism of serotonin on separated intestine” value [7] was “prevents the action of serotonin”. The “serotonin content in brain tissue” value [8] was “decreases the serotonin content”, the synergism with nibuphin (effects of nibuphin) was “synergism” and the “sensitivity to convulsant effects of corasole and caffeine” value [9] was “increases the sensitivity of mice”. The cumulative effect (cumulative effect) was “no cumulative effect”, the “effect on toxicity of apomorphine” value ([10]; mice) was “does not intensify the toxicity of apomorphine in mice” and the “effect on duration of apomorphine stereotypy” value ([10]; mouse, in vivo) was “nor does it affect the duration of apomorphine stereotypy”. The nicotine-induced convulsions [11] was “relieve nicotine-induced convulsions in mice”, the “increase of survival rate” value ([11]; nicotine-induced convulsions) was 50% and the “effect on arecoline tremor” value (arecoline tremor; mice) was “does not mitigate arecoline tremor in mice”. The “effect on duration of arecoline tremor” value (arecoline tremor; mice) was “nor does it affect its duration”, the M-cholinolytic effect (arecoline tremor; mouse, in vivo) was “no M-cholinolytic effect” and the prevention of convulsions [12] was “does not prevent convulsions”. For the same compound, the epileptic seizures [13] was “prevents or reduces the frequency of epileptic seizures”, the “excretion of adrenalin and 17-oxycorticosteroids with urine” value [14] was “pronounced normalization” and the extraction of norepinephrine [14] was “tendenecy towards a normalized extraction”. For the same compound, the “functions of sympathoadrenal and hypothalamohypophysioadrenal systems” value ([14]; course of treatment) was “normalized the functions”, the local irritant effect (local irritant effect) was “no local irritant effect” and the toxicity [15] was “limited toxicity”. For the same compound, the LD50 ([15]; iv, injected intravenously, species not given) was 293 mg/kg, the MTD ([15]; mouse, mice, read-out: DMT (tolerance dose)) was 200 mg/kg and the “effect on animals' behavior” value [16] was “in no way affected the animals's behavior”. For the same compound, the “changes in blood and internal organs” value [17] was “no changes in the blood and internal organs”, the “changes in blood and internal organs” value [18] was “no changes in the blood and internal organs” and the “cases with marked improvement (crises ceased, working capacity restored)” value [19] was 5 cases. The “cases with number and intensity of fits reduced and general improvement” value [19] was 12 cases, the vegetovascular crises ([20]; 8 of 11 patients) was “reduced number or even complete eliminationn of vegetovascular crises” and the “patients with significant improvement” value ([20]; of 11 patients, end of the first week) was 8 patients. The “patients with considerable improvement” value [21] was 20, the “dysphorias and patients' behavior” value ([22]; 18 cases) was “dysphorias were better endured, and the patients' behavior became more controlled” and the electroencephalography ([22]; 18 cases) was “reduction in the paroxysmal activity and normalization of recordings”. The “cases in which attacks ceased completely or frequency reduced by more than half” value ([22]; of 18 cases) was 14 cases, the electrocardiography ([23]; 8 to 12 weeks) was “nor are there any changes that could be detected by electrocardiography” and the “morphological and biochemical composition of the blood” value ([23]; 8 to 12 weeks) was “does not change the morphological and biochemical composition of the blood”. For the same compound, the habit formation ([23]; clinical) was “not habit-forming”, the toxicity ([23]; clinical) was “low toxicity” and the contraindication ([23]; human, in vivo) was “gastric ulcer with a tendency to frequency exacerbations”. For the same compound, the impediment to drivers ([23]; human, in vivo) was “no impediment to drivers”, the “side effects or complications” value ([23]; prolonged administration) was “no side effects or complications” and the anticholinesterase properties (cholinesterase) was “do not possess anticholinesterase properties”. For the same compound, the “effect on analgetic effect of analginum” value (analgetic effect in mice; 1/2 DMT) was “intensified the analgetic effect of analginum”, the “effect on analgetic effect of morphine” value (analgetic effect in mice; 1/4 DMT) was “intensified the analgetic effect of morphine” and the “lowest dose with analgetic effect” value (analgetic effect in mice; mice) was 1/4. For the same compound, the “duration of analgetic effect” value (analgetic effect in mice; mice, 1/2 DMT) was “three hours”, the duration of analgesia (analgetic effect in mice; mice, DMT) was “more than five hours” and the “advent of phenamine stereotypy” value (phenamine stereotypy; great doses) was “prevents the advent”. The “duration of phenamine stereotypy” value (phenamine stereotypy; rats, 10 mg/kg to 400 mg/kg) was “statistically reliable reduction”, the “prevention of death of mice” value (lethal dose of cocaine) was 60% and the tranquilizer strength ([24]; human, in vivo) was “relatively weak tranquilizer”. For the same compound, the night sleep effect ([24]; neuroses) was “light night sleep compeller”, the onset of sleep ([24]; neuroses) was “accelerates the onset of sleep” and the “efficacy versus known drugs” value ([24]; neurotic and psychic disorders with vegetovascular disturbances and epileptic fits without convulsions) was “superior in this respect to the known drugs”. For the same compound, the “side effects or complications” value ([24]; patients) was “no side effects or complications”, the tolerance ([24]; patients) was “good tolerance” and the relaxation effect ([24]; patients, versus benzodiazepin derivatives) was “absence to a marked relaxation effect”.
For `CNC1=Nc2ccc(Cl)cc2C(c2ccccc2)=[N+]([O-])C1` [chlorodiazepoxide], the “vegetotropic and antiepileptic effect” value [25] is given as “most pronounced vegetotropic and antiepileptic effect” and the “relaxing effect and sluggishness” value [25] is given as “manifest a relaxing effect and produce sluggishness”.
For `CN1C(=O)CN=C(c2ccccc2)c2cc(Cl)ccc21` [diazepam], the “vegetotropic and antiepileptic effect” value [25] is listed as “most pronounced vegetotropic and antiepileptic effect” and the “relaxing effect and sluggishness” value [25] is listed as “manifest a relaxing effect and produce sluggishness”.
In the case of `[Mg+2].[O-2]` [magnesia], the “effect of other treatments” value [25] is given as “only a limited and short-lived effect”.
For `CCN(CC)CCOC(=O)c1ccc(N)cc1` [novocain], the “effect of other treatments” value [25] is given as “only a limited and short-lived effect”.
For `COC(=O)[C@H]1[C@H]2C[C@@H]3c4[nH]c5cc(OC)ccc5c4CCN3C[C@H]2C[C@@H](OC(=O)c2cc(OC)c(OC)c(OC)c2)[C@@H]1OC` [reserpine], the “sensitivity to convulsant effects of corasole and caffeine” value [26] is listed as “increases the sensitivity of mice”.
